The record followed here is the supplement of paper PMC10307832.

Holding throughout (experiment): relative viability (nuclei count vs DMSO), 5 days (fraction); higher = more cells survive
Compound in the test “Dabrafenib + Alpelisib”: CC(C)(C)c1nc(-c2cccc(NS(=O)(=O)c3c(F)cccc3F)c2F)c(-c2ccnc(N)n2)s1 [Dabrafenib] + Cc1nc(NC(=O)N2CCC[C@H]2C(N)=O)sc1-c1ccnc(C(C)(C)C(F)(F)F)c1 [Alpelisib] (partner 2 µM)
The method, boiled down: (§1)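 Lung cancer cell lines in 1536-well plates got either a single drug or a fixed anchor-drug dose together with five library-drug doses (not always all listed) in √10 steps, by pin tool, on the day after seeding. Nuclei were counted after 5 days, and relative viability is the treated-to-vehicle ratio of nuclei counts. Values are medians of duplicate plates.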

Compound in the test “Dabrafenib + Trametinib”: CC(C)(C)c1nc(-c2cccc(NS(=O)(=O)c3c(F)cccc3F)c2F)c(-c2ccnc(N)n2)s1 [Dabrafenib] + CC(=O)Nc1cccc(-n2c(=O)n(C3CC3)c(=O)c3c(Nc4ccc(I)cc4F)n(C)c(=O)c(C)c32)c1 [Trametinib] (partner 0.02 µM)
Summed up:
as §1

Compound in the test “Dabrafenib + Phenformin”: CC(C)(C)c1nc(-c2cccc(NS(=O)(=O)c3c(F)cccc3F)c2F)c(-c2ccnc(N)n2)s1 [Dabrafenib] + N=C(N)NC(=N)NCCc1ccccc1 [Phenformin] (partner 250 µM)
Summed up:
as §1

Compound in the test “VX-702 + Vorinostat”: NC(=O)c1ccc(N(C(N)=O)c2c(F)cccc2F)nc1-c1ccc(F)cc1F [VX-702] + O=C(CCCCCCC(=O)Nc1ccccc1)NO [Vorinostat] (partner 1 µM)
Summed up: as §1

Take NCI-H1975: the relative viability with Dabrafenib + Alpelisib (first compound 0.003 µM) is 0.68; in the test with Dabrafenib + Alpelisib (first compound 0.009487 µM), 0.687; with Dabrafenib + Alpelisib (first compound 0.03 µM) it was 0.635; with Dabrafenib + Alpelisib (first compound 0.09487 µM) it was 0.624; in the test with Dabrafenib + Alpelisib (first compound 0.3 µM) it was 0.535; in the test with Dabrafenib + Trametinib (first compound 0.003 µM), 0.214. Also, the relative viability with Dabrafenib + Trametinib (first compound 0.009487 µM) was 0.316; with Dabrafenib + Trametinib (first compound 0.03 µM) it was 0.317; with Dabrafenib + Trametinib (first compound 0.09487 µM) it was 0.321; with Dabrafenib + Trametinib (first compound 0.3 µM), 0.367; with Dabrafenib + Phenformin (first compound 0.003 µM) it was 0.227; in the test with Dabrafenib + Phenformin (first compound 0.009487 µM) it was 0.411. In addition, the relative viability in the test with Dabrafenib + Phenformin (first compound 0.03 µM) came to 0.411; with Dabrafenib + Phenformin (first compound 0.09487 µM), 0.356; in the test with Dabrafenib + Phenformin (first compound 0.3 µM), 0.363; in the test with VX-702 + Vorinostat (first compound 0.02 µM) it was 0.752; in the test with VX-702 + Vorinostat (first compound 0.2 µM) it was 0.719; with VX-702 + Vorinostat (first compound 0.6325 µM), 0.701. Further, the relative viability with VX-702 + Vorinostat (first compound 2 µM) came out at 0.786.

Turning to HCC-15, the relative viability with Dabrafenib + Alpelisib (first compound 0.003 µM) worked out at 0.831; with Dabrafenib + Alpelisib (first compound 0.009487 µM), 0.971; in the test with Dabrafenib + Alpelisib (first compound 0.03 µM), 0.909; with Dabrafenib + Alpelisib (first compound 0.09487 µM), 0.912; with Dabrafenib + Alpelisib (first compound 0.3 µM) it was 0.893; with Dabrafenib + Trametinib (first compound 0.003 µM) it was 0.354. The relative viability was 0.437 in the test with Dabrafenib + Trametinib (first compound 0.009487 µM); 0.378 with Dabrafenib + Trametinib (first compound 0.03 µM); 0.374 with Dabrafenib + Trametinib (first compound 0.09487 µM); 0.506 with Dabrafenib + Trametinib (first compound 0.3 µM); 0.461 with Dabrafenib + Phenformin (first compound 0.003 µM); 0.461 in the test with Dabrafenib + Phenformin (first compound 0.009487 µM). Further, the relative viability in the test with Dabrafenib + Phenformin (first compound 0.03 µM) is 0.528; with Dabrafenib + Phenformin (first compound 0.09487 µM) it was 0.401; in the test with Dabrafenib + Phenformin (first compound 0.3 µM), 0.382; in the test with VX-702 + Vorinostat (first compound 0.02 µM) it was 0.813; in the test with VX-702 + Vorinostat (first compound 0.2 µM), 0.803; with VX-702 + Vorinostat (first compound 0.6325 µM), 0.854. Besides, the relative viability in the test with VX-702 + Vorinostat (first compound 2 µM) is 0.858.

In the case of HOP-62, the relative viability in the test with Dabrafenib + Alpelisib (first compound 0.009487 µM) worked out at 1; with Dabrafenib + Alpelisib (first compound 0.03 µM), 0.734; in the test with Dabrafenib + Alpelisib (first compound 0.09487 µM) it was 0.902; in the test with Dabrafenib + Alpelisib (first compound 0.3 µM) it was 0.771; with Dabrafenib + Trametinib (first compound 0.003 µM), 0.352; in the test with Dabrafenib + Trametinib (first compound 0.009487 µM), 0.41. The relative viability stood at 0.36 with Dabrafenib + Trametinib (first compound 0.03 µM); 0.429 in the test with Dabrafenib + Trametinib (first compound 0.09487 µM); 0.469 with Dabrafenib + Trametinib (first compound 0.3 µM); 0.518 with Dabrafenib + Phenformin (first compound 0.003 µM); 0.604 in the test with Dabrafenib + Phenformin (first compound 0.009487 µM); 0.627 with Dabrafenib + Phenformin (first compound 0.03 µM). The relative viability in the test with Dabrafenib + Phenformin (first compound 0.09487 µM) stood at 0.491; in the test with Dabrafenib + Phenformin (first compound 0.3 µM), 0.495; with VX-702 + Vorinostat (first compound 0.02 µM), 0.869; in the test with VX-702 + Vorinostat (first compound 0.2 µM) it was 0.697; with VX-702 + Vorinostat (first compound 0.6325 µM), 0.744; with VX-702 + Vorinostat (first compound 2 µM), 0.817.

Regarding NCI-H2228, the relative viability was found to be 0.585 with Dabrafenib + Alpelisib (first compound 0.003 µM); 0.858 with Dabrafenib + Alpelisib (first compound 0.009487 µM); 0.813 in the test with Dabrafenib + Alpelisib (first compound 0.03 µM); 0.807 with Dabrafenib + Alpelisib (first compound 0.09487 µM); 0.896 with Dabrafenib + Alpelisib (first compound 0.3 µM); 0.269 in the test with Dabrafenib + Trametinib (first compound 0.003 µM). In addition, the relative viability with Dabrafenib + Trametinib (first compound 0.009487 µM) is 0.45; with Dabrafenib + Trametinib (first compound 0.03 µM), 0.497; with Dabrafenib + Trametinib (first compound 0.09487 µM), 0.597; with Dabrafenib + Trametinib (first compound 0.3 µM) it was 0.658; in the test with Dabrafenib + Phenformin (first compound 0.009487 µM), 0.326; with Dabrafenib + Phenformin (first compound 0.03 µM), 0.289. For the same cell line, the relative viability is 0.37 with Dabrafenib + Phenformin (first compound 0.09487 µM); 0.258 with Dabrafenib + Phenformin (first compound 0.3 µM); 0.536 with VX-702 + Vorinostat (first compound 0.02 µM); 0.631 with VX-702 + Vorinostat (first compound 0.2 µM); 0.467 with VX-702 + Vorinostat (first compound 0.6325 µM); 0.896 with VX-702 + Vorinostat (first compound 2 µM).

Take EMC-BAC-2: the relative viability with Dabrafenib + Alpelisib (first compound 0.003 µM) was 0.744; in the test with Dabrafenib + Alpelisib (first compound 0.009487 µM), 0.746; with Dabrafenib + Alpelisib (first compound 0.03 µM), 0.574; in the test with Dabrafenib + Alpelisib (first compound 0.09487 µM) it was 0.666; with Dabrafenib + Alpelisib (first compound 0.3 µM) it was 0.784; in the test with Dabrafenib + Trametinib (first compound 0.009487 µM), 0.827. For the same cell line, the relative viability in the test with Dabrafenib + Trametinib (first compound 0.03 µM) is 1; with Dabrafenib + Trametinib (first compound 0.09487 µM), 1.03; with Dabrafenib + Trametinib (first compound 0.3 µM), 1.2; with Dabrafenib + Phenformin (first compound 0.003 µM), 0.518; in the test with Dabrafenib + Phenformin (first compound 0.009487 µM), 0.563; with Dabrafenib + Phenformin (first compound 0.03 µM), 0.364. Besides, the relative viability with Dabrafenib + Phenformin (first compound 0.09487 µM) was determined as 0.418; in the test with Dabrafenib + Phenformin (first compound 0.3 µM), 0.548; with VX-702 + Vorinostat (first compound 0.02 µM) it was 0.477; with VX-702 + Vorinostat (first compound 0.2 µM), 0.427; with VX-702 + Vorinostat (first compound 0.6325 µM), 0.496; in the test with VX-702 + Vorinostat (first compound 2 µM), 0.427.

NCI-H1355: the relative viability with Dabrafenib + Alpelisib (first compound 0.009487 µM) is 0.935; in the test with Dabrafenib + Alpelisib (first compound 0.03 µM) it was 0.608; in the test with Dabrafenib + Alpelisib (first compound 0.3 µM) it was 0.809; with Dabrafenib + Trametinib (first compound 0.009487 µM) it was 0.509; in the test with Dabrafenib + Trametinib (first compound 0.03 µM) it was 0.456; with Dabrafenib + Trametinib (first compound 0.09487 µM), 0.471. The relative viability with Dabrafenib + Trametinib (first compound 0.3 µM) worked out at 0.535; with Dabrafenib + Phenformin (first compound 0.009487 µM), 0.487; with Dabrafenib + Phenformin (first compound 0.03 µM) it was 0.414; with Dabrafenib + Phenformin (first compound 0.09487 µM) it was 0.4; with Dabrafenib + Phenformin (first compound 0.3 µM) it was 0.459; with VX-702 + Vorinostat (first compound 0.02 µM) it was 0.694. Further, the relative viability came to 0.605 in the test with VX-702 + Vorinostat (first compound 0.2 µM), 0.689 with VX-702 + Vorinostat (first compound 0.6325 µM) and 0.821 in the test with VX-702 + Vorinostat (first compound 2 µM).

For the cell line NCI-H3122, the relative viability with Dabrafenib + Alpelisib (first compound 0.003 µM) was determined as 0.877; with Dabrafenib + Alpelisib (first compound 0.009487 µM), 0.774; with Dabrafenib + Alpelisib (first compound 0.03 µM), 0.897; with Dabrafenib + Alpelisib (first compound 0.09487 µM), 0.912; in the test with Dabrafenib + Alpelisib (first compound 0.3 µM) it was 0.89; with Dabrafenib + Trametinib (first compound 0.003 µM), 0.273. Besides, the relative viability in the test with Dabrafenib + Trametinib (first compound 0.009487 µM) stood at 0.209; with Dabrafenib + Trametinib (first compound 0.03 µM), 0.159; with Dabrafenib + Trametinib (first compound 0.09487 µM), 0.212; with Dabrafenib + Trametinib (first compound 0.3 µM), 0.238; with Dabrafenib + Phenformin (first compound 0.003 µM) it was 0.32; in the test with Dabrafenib + Phenformin (first compound 0.009487 µM), 0.349. The relative viability in the test with Dabrafenib + Phenformin (first compound 0.03 µM) stood at 0.39; with Dabrafenib + Phenformin (first compound 0.09487 µM) it was 0.369; with Dabrafenib + Phenformin (first compound 0.3 µM), 0.37; in the test with VX-702 + Vorinostat (first compound 0.02 µM), 1.36; in the test with VX-702 + Vorinostat (first compound 0.2 µM), 1.03; with VX-702 + Vorinostat (first compound 0.6325 µM) it was 1.22. The relative viability in the test with VX-702 + Vorinostat (first compound 2 µM) stood at 1.1.
